Legend:
[1] = test system: influenza A/Puerto Rico/8/1934 (H1N1); experiment: CPE inhibition assay in MDCK cells, H1N1; format: cell-based; settings: Influenza A virus, 72 h
in vitro = settings: dog
HK/68 (H3N2) = experiment: CPE inhibition assay in MDCK cells, H3N2; format: cell-based; settings: Influenza A virus, 72 h
H3N2 influenza virus = test system: H3N2 influenza virus; design: method as in PMID 24134208; settings: read-out: IC50 for the cytopathic effect (CPE) of H3N2 influenza virus; cited from earlier work
[2] = test system: influenza virus polymerase PB2 subunit; design: method as in PMID 30102858; settings: cited from earlier work
[3] = test system: influenza virus ribonucleoprotein (RNP); design: method as in PMID 12755627; settings: cited from earlier work
A/WSN/33 = test system: A/WSN/33; design: method as in PMID 20178582; settings: cited from earlier work

## O=C(CCCCC(=O)c1ccccc1C(=O)O)c1ccccc1 [Str6318]
[1]
  IC50: 28.6 ± 9.46 µM
In vitro
  CC50 at 72 h: > 100 µM
HK/68 (H3N2)
  IC50: 11.2 ± 3.39 µM

## COc1c2oc3c(OC)ccc(C(=O)N[C@@H](Cc4ccccc4)C(=O)O)c3nc-2cc(N)c1=O [Str7374]
[1]
  IC50: 31.9 ± 8.15 µM
In vitro
  CC50 at 72 h: > 100 µM
HK/68 (H3N2)
  IC50: 55.4 ± 27 µM

## CCCCOc1ccc(-c2csc(Nc3ccc(CCC(=O)O)cc3)n2)cc1Cl [Str1916]
[1]
  IC50: 4.82 ± 3.03 µM
In vitro
  CC50 at 72 h: > 100 µM
HK/68 (H3N2)
  IC50: 17 ± 7.94 µM

## Cc1nc([O-])c2c(n1)n(CC(=O)c1ccc(O)c(C(=O)O)c1)c[n+]2C [h]
H3N2 influenza virus
  IC50: 0.6 µM

## C[n+]1cn(CCCCC(=O)O)c2nc(CCCCCC(=O)O)nc([O-])c21 [g]
H3N2 influenza virus
  IC50: 5.3 µM

## O=c1oc2cc(O)cc(O)c2c2ccccc12 [Compound D715-2441, 1,3-Dihydroxy-6H-benzo[c]chromen-6-one]
[2]
  PB2 cap and m7 GTP binding: prevent PB2 cap and m7 GTP binding in a dose-dependent manner

## O=C(O)[C@H]1C2CCC(CC2)[C@@H]1Nc1nc(-c2c[nH]c3ncc(F)cc23)ncc1F [VX-787, reference compound]
[1]
  IC50: 0.004 ± 0.001 µM
In vitro
  CC50: > 100 µM
HK/68 (H3N2)
  IC50: 0.09 ± 0.02 µM

## CCC(CC)O[C@@H]1C=C(C(=O)O)C[C@H](N)[C@H]1NC(C)=O [OC, Oseltamivir carboxylate, reference compound]
[1]
  IC50: 0.95 µM
In vitro
  CC50 at 72 h: > 100 µM
HK/68 (H3N2)
  IC50: 0.01 µM

## O=C(O)c1cccc([C@@H](c2ccc(O)c(C(=O)O)c2)C(Cl)(Cl)Cl)c1 [Str5776]
[1]
  IC50: 3.55 ± 1.23 µM
In vitro
  CC50 at 72 h: > 100 µM
HK/68 (H3N2)
  IC50: 2.51 ± 0.12 µM

## Nc1nc2c(c(=O)[nH]1)[n+](Cc1ccccc1)cn2CCCCO [RO0794238]
[3]
  IC50: 45 µM

## Cc1nc([O-])c2c(n1)n(CC(=O)c1ccc(O)c(C(N)=O)c1)c[n+]2C [i]
H3N2 influenza virus
  IC50: 7.5 µM

## O=C(O)c1cc2ccccc2c(Cc2c(O)c(C(=O)O)cc3ccccc23)c1O [Str3107]
[1]
  IC50: 18.2 ± 4.96 µM
In vitro
  CC50: > 100 µM
HK/68 (H3N2)
  IC50: 45.7 ± 3.01 µM

## O=C(Nc1nc(-c2ccc(O)cc2)c(CCc2ccccc2)s1)c1cc(O)c(O)c(O)c1 [Str1614]
[1]
  IC50: 26.3 ± 8.69 µM
In vitro
  CC50 at 72 h: > 100 µM
HK/68 (H3N2)
  IC50: 19.6 ± 0.93 µM

## O=C(O)c1cc(-c2ccc(Br)cc2)nc2ccc(Cl)cc12 [CSV0C019002]
A/WSN/33
  EC50: 4.27 µM

— paper PMC8623395, “Virtual Screening and Molecular Dynamics Simulation Study of Influenza Polymerase PB2 Inhibitors” (Molecules, 2021)
